Earlier results on two compounds are cited in patent publication US20250107560A1, “CHRONOBIOLOGICAL FOOD FOR INFANTS AND METHOD FOR PRODUCING SAME” (priority 2022, published 2025).

The conditions of data set [1]: unlike D-tryptophan.
For another data set, the target named is carrier albumin (Homo sapiens, UniProt P02768). Particulars: compared with D-tryptophan.
carrier albumin, sequence (P02768 25-609): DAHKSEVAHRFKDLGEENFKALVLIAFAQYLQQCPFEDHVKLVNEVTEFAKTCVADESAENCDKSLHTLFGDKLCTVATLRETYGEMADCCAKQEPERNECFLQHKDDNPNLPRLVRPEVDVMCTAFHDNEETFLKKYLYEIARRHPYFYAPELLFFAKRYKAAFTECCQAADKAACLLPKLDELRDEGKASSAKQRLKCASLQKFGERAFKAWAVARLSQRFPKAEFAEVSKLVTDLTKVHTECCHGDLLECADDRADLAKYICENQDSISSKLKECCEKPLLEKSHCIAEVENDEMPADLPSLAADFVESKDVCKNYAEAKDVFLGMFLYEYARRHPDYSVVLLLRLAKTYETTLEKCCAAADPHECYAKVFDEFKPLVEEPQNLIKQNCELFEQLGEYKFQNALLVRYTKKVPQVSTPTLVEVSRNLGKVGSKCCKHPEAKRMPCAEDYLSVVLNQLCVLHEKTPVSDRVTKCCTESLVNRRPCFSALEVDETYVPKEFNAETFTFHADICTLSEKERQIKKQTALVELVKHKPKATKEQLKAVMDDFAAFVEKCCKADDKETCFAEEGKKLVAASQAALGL

Take `N[C@@H](Cc1c[nH]c2ccccc12)C(=O)O` [L-tryptophan]: in data set [1], the toxicity result is “non-toxic”. Further, on carrier albumin, the “binding to the carrier albumin, relative to D-tryptophan” value was 100 times.

As to `COc1ccc2[nH]cc(CCNC(C)=O)c2c1` [Melatonin, melatonin], for the setting “in vivo”, the biological half-life is given as 30-45 minutes. In addition, the “excreted in the urine as 6-sulfatoxymelatonin” value (metabolized in the liver) is on record as “approx. 95%”.
